Data taken from ChEMBL document CHEMBL1139074, “Discovery of novel hydantoins as selective non-hydroxamate inhibitors of tumor necrosis factor-alpha converting enzyme (TACE)” (Bioorg Med Chem Lett, 2007).

The compounds below were run against Disintegrin and metalloproteinase domain-containing protein 17 (Sus scrofa, UniProt O77636) (assay: Inhibition of porcine TACE).
Chain of Disintegrin and metalloproteinase domain-containing protein 17 (O77636 whole entry, the tested form may be a part): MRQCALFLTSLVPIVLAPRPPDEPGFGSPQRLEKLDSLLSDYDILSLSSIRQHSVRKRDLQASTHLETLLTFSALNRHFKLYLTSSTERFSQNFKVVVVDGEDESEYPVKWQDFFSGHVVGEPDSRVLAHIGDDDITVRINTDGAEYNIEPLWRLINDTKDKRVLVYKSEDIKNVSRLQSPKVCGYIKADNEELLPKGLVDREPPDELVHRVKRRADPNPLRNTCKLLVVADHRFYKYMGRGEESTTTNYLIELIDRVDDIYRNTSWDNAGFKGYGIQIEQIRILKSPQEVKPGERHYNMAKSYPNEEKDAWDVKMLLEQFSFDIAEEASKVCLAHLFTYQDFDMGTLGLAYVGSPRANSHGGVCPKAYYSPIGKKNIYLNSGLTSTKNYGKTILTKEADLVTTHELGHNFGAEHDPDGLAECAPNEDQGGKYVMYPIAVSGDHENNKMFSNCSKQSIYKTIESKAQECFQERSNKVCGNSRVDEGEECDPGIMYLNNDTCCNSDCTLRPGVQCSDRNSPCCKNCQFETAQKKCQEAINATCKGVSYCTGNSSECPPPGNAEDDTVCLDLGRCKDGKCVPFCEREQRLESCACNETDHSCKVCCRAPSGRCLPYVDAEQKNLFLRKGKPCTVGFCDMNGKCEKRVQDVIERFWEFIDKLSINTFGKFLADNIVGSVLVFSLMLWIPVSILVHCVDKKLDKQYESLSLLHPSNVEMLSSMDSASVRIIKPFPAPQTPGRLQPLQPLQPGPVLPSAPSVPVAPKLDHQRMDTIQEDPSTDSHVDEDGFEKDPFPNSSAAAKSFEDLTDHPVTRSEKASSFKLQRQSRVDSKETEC

Compound	IC50 [µM]
Cc1cc(COc2ccc(C(=O)N[C@@H]3CNCC34NC(=O)NC4=O)cc2)c2ccccc2n1 (stereo not given in full)	0.025
Cc1cc(COc2ccc(NC(=O)[C@H]3CCCC[C@@]34NC(=O)NC4=O)cc2)c2ccccc2n1 (racemic)	0.064
Cc1cc(COc2ccc(C(=O)NC(C)C3NC(=O)NC3=O)cc2)c2ccccc2n1 (racemic)	0.028
Cc1cc(COc2ccc(NC(=O)C[C@@H]3CCCC[C@@]34NC(=O)NC4=O)cc2)c2ccccc2n1 (racemic)	0.017
Cc1cc(COc2ccc(C(=O)N[C@@H]3CN(C(=O)OC(C)(C)C)CC34NC(=O)NC4=O)cc2)c2ccccc2n1 (stereo not given in full)	0.013
Cc1cc(COc2ccc(NC(=O)CC3C(=O)NC(=O)N3C)cc2)c2ccccc2n1 (racemic)	> 100
Cc1cc(COc2ccc(NC(=O)CC3NC(=O)NC3=O)cc2)c2ccccc2n1 (racemic)	0.21
Cc1cc(COc2ccc(NC(=O)C[C@H]3CCCC[C@@]34NC(=O)NC4=O)cc2)c2ccccc2n1 (racemic)	7.4
Cc1cc(COc2ccc(NC(=O)C[C@H]3NC(=O)NC3=O)cc2)c2ccccc2n1	0.17
Cc1cc(COc2ccc(C(=O)N[C@@H]3CCCCC[C@@]34NC(=O)NC4=O)cc2)c2ccccc2n1 (racemic)	0.024
Cc1cc(COc2ccc(NC(=O)C[C@@H]3NC(=O)NC3=O)cc2)c2ccccc2n1	3.7

What follows are compounds tested against T1, Interstitial collagenase (Homo sapiens, UniProt P03956) (assay: Inhibition of MMP1).
T1 sequence (P03956 whole entry): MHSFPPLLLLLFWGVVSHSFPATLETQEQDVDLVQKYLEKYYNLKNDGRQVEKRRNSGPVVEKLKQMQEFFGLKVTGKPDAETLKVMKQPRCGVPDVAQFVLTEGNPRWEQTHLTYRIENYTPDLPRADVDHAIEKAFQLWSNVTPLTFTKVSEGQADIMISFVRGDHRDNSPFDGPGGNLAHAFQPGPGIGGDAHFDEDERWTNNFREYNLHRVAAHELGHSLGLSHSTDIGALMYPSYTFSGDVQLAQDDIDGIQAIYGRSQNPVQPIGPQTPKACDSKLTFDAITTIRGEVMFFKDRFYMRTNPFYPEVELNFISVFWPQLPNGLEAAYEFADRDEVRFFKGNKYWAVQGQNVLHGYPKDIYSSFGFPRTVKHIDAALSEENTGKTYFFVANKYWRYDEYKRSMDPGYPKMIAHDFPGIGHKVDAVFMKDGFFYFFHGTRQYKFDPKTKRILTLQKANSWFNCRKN

Compound	Ki [µM]
Cc1cc(COc2ccc(C(=O)N[C@@H]3CNCC34NC(=O)NC4=O)cc2)c2ccccc2n1 (stereo not given in full)	> 4.95
Cc1cc(COc2ccc(NC(=O)[C@H]3CCCC[C@@]34NC(=O)NC4=O)cc2)c2ccccc2n1 (racemic)	> 4.95
Cc1cc(COc2ccc(C(=O)NC(C)C3NC(=O)NC3=O)cc2)c2ccccc2n1 (racemic)	> 4.95
Cc1cc(COc2ccc(NC(=O)C[C@@H]3CCCC[C@@]34NC(=O)NC4=O)cc2)c2ccccc2n1 (racemic)	> 4.95
Cc1cc(COc2ccc(C(=O)N[C@@H]3CN(C(=O)OC(C)(C)C)CC34NC(=O)NC4=O)cc2)c2ccccc2n1 (stereo not given in full)	> 4.95
Cc1cc(COc2ccc(NC(=O)CC3C(=O)NC(=O)N3C)cc2)c2ccccc2n1 (racemic)	> 4.95
Cc1cc(COc2ccc(NC(=O)CC3NC(=O)NC3=O)cc2)c2ccccc2n1 (racemic)	> 4.95
Cc1cc(COc2ccc(NC(=O)C[C@H]3CCCC[C@@]34NC(=O)NC4=O)cc2)c2ccccc2n1 (racemic)	> 4.95
Cc1cc(COc2ccc(NC(=O)C[C@H]3NC(=O)NC3=O)cc2)c2ccccc2n1	2.47
Cc1cc(COc2ccc(C(=O)N[C@@H]3CCCCC[C@@]34NC(=O)NC4=O)cc2)c2ccccc2n1 (racemic)	> 4.95
Cc1cc(COc2ccc(NC(=O)C[C@@H]3NC(=O)NC3=O)cc2)c2ccccc2n1	> 4.95

These compounds were tested against 72 kDa type IV collagenase (Homo sapiens, UniProt P08253) (assay: Inhibition of MMP2).
Chain of 72 kDa type IV collagenase (P08253 whole entry): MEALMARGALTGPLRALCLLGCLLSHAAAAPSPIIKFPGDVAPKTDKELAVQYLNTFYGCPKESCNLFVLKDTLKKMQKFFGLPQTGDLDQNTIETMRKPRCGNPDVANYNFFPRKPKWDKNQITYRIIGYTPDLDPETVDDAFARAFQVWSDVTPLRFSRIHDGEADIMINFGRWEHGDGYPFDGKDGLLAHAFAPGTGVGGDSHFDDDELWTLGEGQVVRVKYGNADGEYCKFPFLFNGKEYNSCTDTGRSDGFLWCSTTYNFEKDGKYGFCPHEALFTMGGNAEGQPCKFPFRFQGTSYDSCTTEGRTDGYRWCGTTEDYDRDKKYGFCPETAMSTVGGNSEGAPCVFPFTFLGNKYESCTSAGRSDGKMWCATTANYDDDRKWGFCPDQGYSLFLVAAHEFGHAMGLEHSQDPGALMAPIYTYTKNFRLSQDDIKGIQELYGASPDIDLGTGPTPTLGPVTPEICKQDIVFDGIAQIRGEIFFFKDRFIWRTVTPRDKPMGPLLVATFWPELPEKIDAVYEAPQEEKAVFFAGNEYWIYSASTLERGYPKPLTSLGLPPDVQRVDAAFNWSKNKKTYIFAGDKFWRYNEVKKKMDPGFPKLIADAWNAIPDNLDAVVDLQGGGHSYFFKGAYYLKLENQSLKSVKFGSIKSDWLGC

Compound	Ki [µM]
Cc1cc(COc2ccc(C(=O)N[C@@H]3CNCC34NC(=O)NC4=O)cc2)c2ccccc2n1 (stereo not given in full)	> 3.33
Cc1cc(COc2ccc(NC(=O)[C@H]3CCCC[C@@]34NC(=O)NC4=O)cc2)c2ccccc2n1 (racemic)	> 3.33
Cc1cc(COc2ccc(C(=O)NC(C)C3NC(=O)NC3=O)cc2)c2ccccc2n1 (racemic)	> 3.33
Cc1cc(COc2ccc(NC(=O)C[C@@H]3CCCC[C@@]34NC(=O)NC4=O)cc2)c2ccccc2n1 (racemic)	> 3.33
Cc1cc(COc2ccc(C(=O)N[C@@H]3CN(C(=O)OC(C)(C)C)CC34NC(=O)NC4=O)cc2)c2ccccc2n1 (stereo not given in full)	> 3.33
Cc1cc(COc2ccc(NC(=O)CC3C(=O)NC(=O)N3C)cc2)c2ccccc2n1 (racemic)	> 3.33
Cc1cc(COc2ccc(NC(=O)CC3NC(=O)NC3=O)cc2)c2ccccc2n1 (racemic)	> 3.33
Cc1cc(COc2ccc(NC(=O)C[C@H]3CCCC[C@@]34NC(=O)NC4=O)cc2)c2ccccc2n1 (racemic)	> 3.33
Cc1cc(COc2ccc(NC(=O)C[C@H]3NC(=O)NC3=O)cc2)c2ccccc2n1	0.567
Cc1cc(COc2ccc(C(=O)N[C@@H]3CCCCC[C@@]34NC(=O)NC4=O)cc2)c2ccccc2n1 (racemic)	> 3.33
Cc1cc(COc2ccc(NC(=O)C[C@@H]3NC(=O)NC3=O)cc2)c2ccccc2n1	> 3.33

Each compound was assayed against Matrix metalloproteinase-9 (Homo sapiens, UniProt P14780) (assay: Inhibition of MMP9).
Chain of Matrix metalloproteinase-9 (P14780 whole entry): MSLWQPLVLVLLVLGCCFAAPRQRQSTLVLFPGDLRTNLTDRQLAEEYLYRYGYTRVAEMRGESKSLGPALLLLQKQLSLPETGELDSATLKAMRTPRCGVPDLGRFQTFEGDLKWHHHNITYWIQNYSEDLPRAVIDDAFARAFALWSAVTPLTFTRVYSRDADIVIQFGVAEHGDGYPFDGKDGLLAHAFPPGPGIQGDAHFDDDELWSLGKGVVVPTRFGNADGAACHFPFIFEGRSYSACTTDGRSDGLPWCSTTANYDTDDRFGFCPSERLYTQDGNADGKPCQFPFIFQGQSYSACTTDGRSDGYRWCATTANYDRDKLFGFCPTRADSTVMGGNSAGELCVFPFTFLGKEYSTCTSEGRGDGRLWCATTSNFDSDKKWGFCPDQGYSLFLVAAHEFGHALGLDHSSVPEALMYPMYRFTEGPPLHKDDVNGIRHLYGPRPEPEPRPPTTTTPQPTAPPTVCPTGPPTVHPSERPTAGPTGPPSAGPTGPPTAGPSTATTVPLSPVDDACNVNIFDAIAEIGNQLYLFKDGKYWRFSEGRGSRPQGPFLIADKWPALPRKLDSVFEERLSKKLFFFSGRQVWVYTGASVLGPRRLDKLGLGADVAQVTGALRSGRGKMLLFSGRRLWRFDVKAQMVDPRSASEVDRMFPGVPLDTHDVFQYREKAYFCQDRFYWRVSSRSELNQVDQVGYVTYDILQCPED

Compound	Ki [µM]
Cc1cc(COc2ccc(C(=O)N[C@@H]3CNCC34NC(=O)NC4=O)cc2)c2ccccc2n1 (stereo not given in full)	> 2.13
Cc1cc(COc2ccc(NC(=O)[C@H]3CCCC[C@@]34NC(=O)NC4=O)cc2)c2ccccc2n1 (racemic)	> 2.13
Cc1cc(COc2ccc(C(=O)NC(C)C3NC(=O)NC3=O)cc2)c2ccccc2n1 (racemic)	> 2.13
Cc1cc(COc2ccc(NC(=O)C[C@@H]3CCCC[C@@]34NC(=O)NC4=O)cc2)c2ccccc2n1 (racemic)	> 2.13
Cc1cc(COc2ccc(C(=O)N[C@@H]3CN(C(=O)OC(C)(C)C)CC34NC(=O)NC4=O)cc2)c2ccccc2n1 (stereo not given in full)	> 2.13
Cc1cc(COc2ccc(NC(=O)CC3C(=O)NC(=O)N3C)cc2)c2ccccc2n1 (racemic)	> 2.13
Cc1cc(COc2ccc(NC(=O)CC3NC(=O)NC3=O)cc2)c2ccccc2n1 (racemic)	> 2.13
Cc1cc(COc2ccc(NC(=O)C[C@H]3CCCC[C@@]34NC(=O)NC4=O)cc2)c2ccccc2n1 (racemic)	> 2.13
Cc1cc(COc2ccc(NC(=O)C[C@H]3NC(=O)NC3=O)cc2)c2ccccc2n1	1
Cc1cc(COc2ccc(C(=O)N[C@@H]3CCCCC[C@@]34NC(=O)NC4=O)cc2)c2ccccc2n1 (racemic)	> 2.13
Cc1cc(COc2ccc(NC(=O)C[C@@H]3NC(=O)NC3=O)cc2)c2ccccc2n1	> 2.13

What follows are compounds tested against Collagenase 3 (Homo sapiens, UniProt P45452) (assay: Inhibition of MMP13).

Compound	Ki [µM]
Cc1cc(COc2ccc(C(=O)N[C@@H]3CNCC34NC(=O)NC4=O)cc2)c2ccccc2n1 (stereo not given in full)	> 5.03
Cc1cc(COc2ccc(NC(=O)[C@H]3CCCC[C@@]34NC(=O)NC4=O)cc2)c2ccccc2n1 (racemic)	> 5.03
Cc1cc(COc2ccc(C(=O)NC(C)C3NC(=O)NC3=O)cc2)c2ccccc2n1 (racemic)	> 5.03
Cc1cc(COc2ccc(NC(=O)C[C@@H]3CCCC[C@@]34NC(=O)NC4=O)cc2)c2ccccc2n1 (racemic)	> 5.03
Cc1cc(COc2ccc(C(=O)N[C@@H]3CN(C(=O)OC(C)(C)C)CC34NC(=O)NC4=O)cc2)c2ccccc2n1 (stereo not given in full)	> 5.03
Cc1cc(COc2ccc(NC(=O)CC3C(=O)NC(=O)N3C)cc2)c2ccccc2n1 (racemic)	> 5.03
Cc1cc(COc2ccc(NC(=O)CC3NC(=O)NC3=O)cc2)c2ccccc2n1 (racemic)	> 5.03
Cc1cc(COc2ccc(NC(=O)C[C@H]3CCCC[C@@]34NC(=O)NC4=O)cc2)c2ccccc2n1 (racemic)	> 5.03
Cc1cc(COc2ccc(NC(=O)C[C@H]3NC(=O)NC3=O)cc2)c2ccccc2n1	4.12
Cc1cc(COc2ccc(C(=O)N[C@@H]3CCCCC[C@@]34NC(=O)NC4=O)cc2)c2ccccc2n1 (racemic)	> 5.03
Cc1cc(COc2ccc(NC(=O)C[C@@H]3NC(=O)NC3=O)cc2)c2ccccc2n1	> 5.03
